From the supplement of paper PMC10307832

What was measured:
Test in all cases: relative viability (nuclei count vs DMSO), 5 days (fraction); higher = more cells survive
Crenolanib + Alpelisib = compound: CC1(COc2ccc3c(c2)ncn3-c2ccc3cccc(N4CCC(N)CC4)c3n2)COC1 [Crenolanib] + Cc1nc(NC(=O)N2CCC[C@H]2C(N)=O)sc1-c1ccnc(C(C)(C)C(F)(F)F)c1 [Alpelisib] (partner 2 µM)
Method in brief: (§1)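 Relative viability divides the nuclei count in treated wells by that in vehicle wells. Lung cancer cell lines were seeded in 1536-well plates, dosed by pin tool the next day, and fixed and stained after 5 days in one step with final 0.05% Triton X-100, 1% formaldehyde and 1 ug/ml Hoechst. Dosing was a single drug or a fixed anchor-drug dose plus five library-drug doses (not always all listed) in √10 steps, and values are medians of duplicate plates imaged at 4×.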

Crenolanib + Vorinostat = compound: CC1(COc2ccc3c(c2)ncn3-c2ccc3cccc(N4CCC(N)CC4)c3n2)COC1 [Crenolanib] + O=C(CCCCCCC(=O)Nc1ccccc1)NO [Vorinostat] (partner 1 µM)
Method in brief: as §1

Tivantinib + Linsitinib = compound: O=C1NC(=O)[C@@H](c2cn3c4c(cccc24)CCC3)[C@@H]1c1c[nH]c2ccccc12 [Tivantinib] + C[C@]1(O)C[C@@H](c2nc(-c3ccc4ccc(-c5ccccc5)nc4c3)c3c(N)nccn32)C1 [Linsitinib] (partner 1 µM)
Method in brief: as §1

Tivantinib + Dasatinib = compound: O=C1NC(=O)[C@@H](c2cn3c4c(cccc24)CCC3)[C@@H]1c1c[nH]c2ccccc12 [Tivantinib] + Cc1nc(Nc2ncc(C(=O)Nc3c(C)cccc3Cl)s2)cc(N2CCN(CCO)CC2)n1 [Dasatinib] (partner 0.075 µM)
Method in brief: as §1

With UMC-11 the relative viability (Crenolanib + Alpelisib; first compound 0.01 µM) was 1.06, the relative viability (Crenolanib + Alpelisib; first compound 0.03162 µM) was 0.958 and the relative viability (Crenolanib + Alpelisib; first compound 0.1 µM) was 0.956. It also gave a relative viability (Crenolanib + Alpelisib; first compound 0.3162 µM) of 1.14, a relative viability (Crenolanib + Alpelisib; first compound 1 µM) of 0.989 and a relative viability (Crenolanib + Vorinostat; first compound 0.01 µM) of 0.383. For the same cell line, the relative viability (Crenolanib + Vorinostat; first compound 0.03162 µM) was 0.453, the relative viability (Crenolanib + Vorinostat; first compound 0.1 µM) was 0.389 and the relative viability (Crenolanib + Vorinostat; first compound 0.3162 µM) was 0.363. The relative viability (Crenolanib + Vorinostat; first compound 1 µM) was 0.374, the relative viability (Tivantinib + Linsitinib; first compound 0.01 µM) was 0.974 and the relative viability (Tivantinib + Linsitinib; first compound 0.03162 µM) was 0.979. The relative viability (Tivantinib + Linsitinib; first compound 0.1 µM) was 0.943, the relative viability (Tivantinib + Linsitinib; first compound 0.3162 µM) was 1 and the relative viability (Tivantinib + Dasatinib; first compound 0.01 µM) was 0.43. It also gave a relative viability (Tivantinib + Dasatinib; first compound 0.03162 µM) of 0.491, a relative viability (Tivantinib + Dasatinib; first compound 0.1 µM) of 0.421 and a relative viability (Tivantinib + Dasatinib; first compound 0.3162 µM) of 0.614.
